For series [1], the target named is p38 MAPKα (Homo sapiens (Human), UniProt Q16539). As to the kind of experiment: p38 MAPKα enzyme inhibition (FRET, Z-LYTE). It is filed as biochemical. The protocol:
(§1) The enzyme inhibitory activities of compounds disclosed herein are determined by FRET using synthetic peptides labelled with both donor and acceptor fluorophores (Z-LYTE, Invitrogen Ltd., Paisley, UK).
The inhibitory activities of test compounds against the p38 MAPKα isoform (MAPK14: Invitrogen), are evaluated indirectly by determining the level of activation/phosphorylation of the down-stream molecule, MAPKAP-K2. The p38 MAPKα protein (80 ng/mL, 2.5 μL) is mixed with the test compound (2.5 μL of either 4 μg/mL, 0.4 μg/mL, 0.04 μg/mL or 0.004 μg/mL) for 2 hr at RT. […] The mixture is incubated for 1 hr at RT. Development reagent (protease, 5 μL) is added for 1 hr prior to detection in a fluorescence microplate reader (Varioskan® Flash, ThermoFisher Scientific).
(§2) In all cases, the site-specific protease cleaves non-phosphorylated peptide only and eliminates the FRET signal. Phosphorylation levels of each reaction are calculated using the ratio of coumarin emission (donor) over fluorescein emission (acceptor), for which low ratios indicate high phosphorylation and high ratios indicate low phosphorylation levels.

Series [2] concerns the target Syk (Homo sapiens (Human), UniProt P43405). Put plainly: Syk enzyme inhibition (FRET, Z-LYTE). In kind it is biochemical. On the procedure:
as §1
(§3) The relevant enzyme (3000 ng/mL or 2000 ng/mL respectively, 2.5 μL) is incubated with the test compound (either 4 μg/mL, 0.4 μg/mL, 0.04 μg/mL, or 0.004 μg/mL, 2.5 μL each) for 2 hr at RT. The FRET peptides (8 μM, 2.5 μL), and appropriate ATP solutions (2.5 μL, 800 μM for c-Src, and 60 μM ATP for Syk) are then added to the enzymes/compound mixtures and incubated for 1 hr. Development reagent (protease, 5 μL) is added for 1 hr prior to detection in a fluorescence microplate reader (Varioskan® Flash, ThermoFisher Scientific).
as §2

The subject of series [3] is d-U937 cells. As to the kind of experiment: Cell viability: MTT assay. It is filed as cell-based, human. The settings on record: 1 μg/mL. The protocol:
Differentiated U937 cells are pre-incubated with each test compound (final concentration 1 μg/mL or 10 μg/mL in 200 μL media indicated below) under two protocols: the first for 4 hr in 5% FCS RPMI1640 media and the second in 10% FCS RPMI1640 media for 24 h. The supernatant is replaced with new media (200 μL) and MTT stock solution (10 μL, 5 mg/mL) is added to each well. After incubation for 1 hr the media are removed, DMSO (200 μL) is added to each well and the plates are shaken lightly for 1 hr prior to reading the absorbance at 550 nm. The percentage loss of cell viability is calculated for each well relative to vehicle (0.5% DMSO) treatment. Consequently an apparent increase in cell viability for drug treatment relative to vehicle is tabulated as a negative percentage.
(Tetrazolium assays rely on reduction of a dye to a coloured formazan, in cell work by metabolically active cells.)

Series [4] concerns the target cSrc (Homo sapiens (Human), UniProt P12931). As to the kind of experiment: c-Src enzyme inhibition (FRET, Z-LYTE). It is filed as biochemical. The protocol:
as §1, §3, §2

The target of series [5] is GSK3α (Homo sapiens (Human), UniProt P49840). As to the kind of experiment: GSK 3α enzyme inhibition (FRET, Z-LYTE). In kind it is biochemical. The protocol:
as §1
The inhibitory activities of compounds of the invention against the GSK 3α enzyme isoform (Invitrogen), are evaluated by determining the level of activation/phosphorylation of the target peptide. The GSK3-α protein (500 ng/mL, 2.5 μL) is mixed with the test compound (2.5 μL at either 4 μg/mL, 0.4 μg/mL, 0.04 μg/mL, or 0.004 μg/mL) for 2 hr at RT. The FRET peptide (8 μM, 2.5 μL), which is a phosphorylation target for GSK3α, and ATP (40 μM, 2.5 μL) are then added to the enzyme/compound mixture and the resulting mixture incubated for 1 hr. Development reagent (protease, 5 μL) is added for 1 hr prior to detection in a fluorescence microplate reader (Varioskan® Flash, ThermoFisher Scientific).
as §2

Series [6] deals with Poly I:C-induced ICAM-1 expression in BEAS2B cells. Put plainly: Poly I:C-induced ICAM-1 expression in BEAS2B cells. In kind it is cell-based. The settings on record: Homo sapiens, BEAS-2B, read-out: Poly IC induced ICAM1 in BEAS2B IC50. On the procedure:
Poly I:C is used in these studies as a simple, RNA virus mimic. Poly I:C-Oligofectamine mixture (1 μg/mL Poly I:C, ±2% Oligofectamine, 25 uL) (Invivogen Ltd., San Diego, Calif., and Invitrogen, Carlsbad, Calif., respectively) is transfected into BEAS2B cells (human bronchial epithelial cells, ATCC). Cells are pre-incubated with final concentrations of test compounds for 2 hr and the level of ICAM1 expression on the cell surface is determined by cell-based ELISA. At a time point 18 hr after poly I:C transfection, cells are fixed with 4% formaldehyde in PBS (100 μL) and then endogenous peroxidase is quenched by the addition of washing buffer (100 μL, 0.05% Tween in PBS: PBS-Tween) containing 0.1% sodium azide and 1% hydrogen peroxide. Cells are washed with wash-buffer (3×200 μL). and after blocking the wells with 5% milk in PBS-Tween (100 μL) for 1 hr, the cells are incubated with anti-human ICAM-1 antibody (50 μL) (Cell Signaling Technology, Danvers, Mass.) in 1% BSA PBS overnight at 4° C.
The cells are washed with PBS-Tween (3×200 μL) and incubated with the secondary antibody (100 μL) (HRP-conjugated anti-rabbit IgG, Dako Ltd., Glostrup, Denmark). The cells are then incubated with of substrate (50 μL) for 2-20 min, followed by the addition of stop solution (50 μL, 1N H2SO4). The ICAM-1 signal is detected by reading and reading the absorbance at 450 nm against a reference wavelength of 655 nm using a spectrophotometer. The cells are then washed with PBS-Tween (3×200 μL) and total cell numbers in each well are determined by reading absorbance at 595 nm after Crystal Violet staining (50 μL of a 2% solution in PBS) and elution by 1% SDS solution (100 μL) in distilled water. The measured OD 450-655 readings are corrected for cell number by dividing with the OD595 reading in each well.

Series [7] deals with LPS-induced IL-8 release in d-U937 cells. As to the kind of experiment: LPS-induced IL-8 release in d-U937 cells. It is filed as cell-based. The settings on record: Homo sapiens, dU937, read-out: LPS Induced Release of Cytokine in d-937 Cells IL-8 IC50. The protocol:
U937 cells, a human monocytic cell line, are differentiated into macrophage-type cells by incubation with PMA (100 ng/mL) for 48 to 72 hr. Cells are pre-incubated with final concentrations of test compound for 2 hr and are then stimulated with LPS (0.1 μg/mL) (from E. coli: O111:B4, Sigma) for 4 hr. The supernatant is collected for determination of TNFα and IL-8 concentrations by sandwich ELISA (Duo-set, R&D systems). […] The relative 50% effective concentration (REC50) is determined from the resultant concentration-response curve. The inhibition of IL-8 production is calculated at each concentration of test compound by comparison with vehicle control. […] (b) LPS-Induced TNFα/IL-8 Release in PBMC Cells

Sequence of cSrc (P12931 whole entry, looked up): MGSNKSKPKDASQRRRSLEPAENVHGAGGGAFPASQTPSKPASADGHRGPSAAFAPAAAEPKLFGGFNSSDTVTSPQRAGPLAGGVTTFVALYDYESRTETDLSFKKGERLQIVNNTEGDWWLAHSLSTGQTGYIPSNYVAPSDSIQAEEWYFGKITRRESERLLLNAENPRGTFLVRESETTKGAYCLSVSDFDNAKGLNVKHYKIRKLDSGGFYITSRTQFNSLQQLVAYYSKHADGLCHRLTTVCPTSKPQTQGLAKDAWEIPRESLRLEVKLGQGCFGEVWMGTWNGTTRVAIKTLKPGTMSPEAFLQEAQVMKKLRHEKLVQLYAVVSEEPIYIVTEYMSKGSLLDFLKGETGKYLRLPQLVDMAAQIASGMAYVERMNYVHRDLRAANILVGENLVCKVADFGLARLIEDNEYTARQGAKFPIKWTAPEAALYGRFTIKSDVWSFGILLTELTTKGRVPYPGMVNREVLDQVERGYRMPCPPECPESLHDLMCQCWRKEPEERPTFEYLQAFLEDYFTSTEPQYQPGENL
Sequence of GSK3α (P49840 whole entry): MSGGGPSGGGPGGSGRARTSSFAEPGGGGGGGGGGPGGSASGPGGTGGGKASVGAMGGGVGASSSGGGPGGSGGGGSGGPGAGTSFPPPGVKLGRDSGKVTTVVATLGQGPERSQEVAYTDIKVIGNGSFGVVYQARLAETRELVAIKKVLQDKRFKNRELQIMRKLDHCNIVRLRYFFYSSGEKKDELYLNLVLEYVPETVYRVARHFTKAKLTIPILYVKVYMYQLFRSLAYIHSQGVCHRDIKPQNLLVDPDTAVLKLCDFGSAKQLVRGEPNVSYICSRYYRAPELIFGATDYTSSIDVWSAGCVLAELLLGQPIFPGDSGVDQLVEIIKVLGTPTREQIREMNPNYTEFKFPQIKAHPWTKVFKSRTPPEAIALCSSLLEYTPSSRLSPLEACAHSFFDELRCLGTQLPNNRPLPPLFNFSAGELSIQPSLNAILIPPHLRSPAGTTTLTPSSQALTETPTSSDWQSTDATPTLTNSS
Sequence of p38 MAPKα (Q16539 whole entry): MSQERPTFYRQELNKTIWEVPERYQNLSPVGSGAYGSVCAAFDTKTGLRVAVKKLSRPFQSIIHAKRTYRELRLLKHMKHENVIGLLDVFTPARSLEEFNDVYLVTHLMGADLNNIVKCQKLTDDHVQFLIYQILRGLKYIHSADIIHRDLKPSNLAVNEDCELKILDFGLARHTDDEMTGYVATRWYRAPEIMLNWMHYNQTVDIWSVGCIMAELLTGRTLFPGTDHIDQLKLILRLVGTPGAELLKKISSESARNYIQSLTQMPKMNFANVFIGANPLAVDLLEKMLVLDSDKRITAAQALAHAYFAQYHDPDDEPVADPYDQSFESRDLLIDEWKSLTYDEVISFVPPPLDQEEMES

For `Cc1cc(Nc2cc(Oc3ccc(NC(=O)Nc4cc(C(C)(C)C)nn4-c4ccc(OCCN5CCOCC5)cc4)c4ccccc34)ccn2)cc2cn[nH]c12` [Example 68], the IC50 – broadly, the concentration at which inhibition is half-maximal – in series [1] was 40 nM; in series [2], below 1 nM; in series [4] it was 3 nM; in series [5], 3040 nM; in series [6], 7.6 nM. The “MTT Assay Cell viability at time point in d-U937 cells 4 h” value in series [3] was “−ve (−ve and +ve indicate that the value is below and above respectively, the no significant effect threshold, defined as 30% inhibition at 1 μg/mL at the time point indicated.)”. For the same compound, the “MTT Assay Cell viability at time point in d-U937 cells 24 h” value in series [3] was “−ve (−ve and +ve indicate that the value is below and above respectively, the no significant effect threshold, defined as 30% inhibition at 1 μg/mL at the time point indicated.)”.
`CC(C)(C)c1cc(NC(=O)Nc2ccc(Oc3ccnc(Nc4ccc5[nH]ncc5c4)c3)c3ccccc23)n(-c2cccc(OCCN3CCOCC3)c2)n1` [Example 52]: the IC50 worked out at 22 nM in series [1]; 18 nM in series [2]; 3 nM in series [4]; 4970 nM in series [5]; 10.2 nM in series [6]. Besides, in series [3], the “MTT Assay Cell viability at time point in d-U937 cells 4 h” value was “−ve (−ve and +ve indicate that the value is below and above respectively, the no significant effect threshold, defined as 30% inhibition at 1 μg/mL at the time point indicated.)”. For the same compound, in series [3], the “MTT Assay Cell viability at time point in d-U937 cells 24 h” value was “−ve (−ve and +ve indicate that the value is below and above respectively, the no significant effect threshold, defined as 30% inhibition at 1 μg/mL at the time point indicated.)”.
In the case of `Cc1cc(Nc2cc(Oc3ccc(NC(=O)Nc4cc(C(C)(C)C)nn4-c4ccc(OCCN(C)C)cc4)c4ccccc34)ccn2)cc2cn[nH]c12` [Example 58], the IC50 in series [1] was below 1 nM; in series [4] it was below 1 nM; in series [5] it was 1260 nM; in series [6] it was 8.3 nM. Further, the “MTT Assay Cell viability at time point in d-U937 cells 4 h” value in series [3] is “−ve (−ve and +ve indicate that the value is below and above respectively, the no significant effect threshold, defined as 30% inhibition at 1 μg/mL at the time point indicated.)”. In series [3], the “MTT Assay Cell viability at time point in d-U937 cells 24 h” value is “−ve (−ve and +ve indicate that the value is below and above respectively, the no significant effect threshold, defined as 30% inhibition at 1 μg/mL at the time point indicated.)”.
For `COc1ccc(-n2nc(C3CCOC3)cc2NC(=O)Nc2ccc(Oc3ccnc(Nc4ccc5[nH]ncc5c4)n3)c3ccccc23)cc1` (stereo not shown) [Example 8, 1-(4-((2-((1H-Indazol-5-yl)amino)pyrimidin-4-yl)oxy)naphthalen-1-yl)-3-(1-(4-methoxyphenyl)-3-(tetrahydrofuran-3-yl)-1H-pyrazol-5-yl)urea], the IC50 in series [1] was determined as 7 nM; in series [2], 8 nM; in series [7] it was 3.6 nM; in series [4], 2 nM; in series [5], 837 nM; in series [6], 16.8 nM. In series [3], the “MTT Assay Cell viability at time point in d-U937 cells 4 h” value is “−ve (−ve and +ve indicate that the value is below and above respectively, the no significant effect threshold, defined as 30% inhibition at 1 μg/mL at the time point indicated.)”. The “MTT Assay Cell viability at time point in d-U937 cells 24 h” value in series [3] is “−ve (−ve and +ve indicate that the value is below and above respectively, the no significant effect threshold, defined as 30% inhibition at 1 μg/mL at the time point indicated.)”.
`Cc1cc(Nc2nccc(Oc3ccc(NC(=O)Nc4cc(C(C)(C)C)nn4-c4ccc(OCCN5CCOCC5)cc4)c4ccccc34)n2)cc2cn[nH]c12` [Example 73, 1-(3-(tert-butyl)-1-(4-(2-morpholinoethoxy)phenyl)-1H-pyrazol-5-yl)-3-(4-((2-((7-methyl-1H-indazol-5-yl)amino)pyrimidin-4-yl)oxy)naphthalen-1-yl)urea]: the IC50 came out at 69 nM in series [1]; 4 nM in series [2]; 2.6 nM in series [7]; 5 nM in series [4]; 1800 nM in series [5]; 2.2 nM in series [6]. Moreover, the “MTT Assay Cell viability at time point in d-U937 cells 4 h” value in series [3] is “−ve (−ve and +ve indicate that the value is below and above respectively, the no significant effect threshold, defined as 30% inhibition at 1 μg/mL at the time point indicated.)”. The “MTT Assay Cell viability at time point in d-U937 cells 24 h” value in series [3] was “−ve (−ve and +ve indicate that the value is below and above respectively, the no significant effect threshold, defined as 30% inhibition at 1 μg/mL at the time point indicated.)”.
Consider `CC(C)c1cc(NC(=O)Nc2ccc(Oc3ccnc(Nc4ccc5[nH]ncc5c4)c3)c3ccccc23)n(-c2cccc(OCCN3CCOCC3)c2)n1` [Example 51], for which the IC50 is 2 nM in series [1]; below 1 nM in series [2]; below 1 nM in series [4]; 4900 nM in series [5]; 23.8 nM in series [6]. Besides, the “MTT Assay Cell viability at time point in d-U937 cells 4 h” value in series [3] was “−ve (−ve and +ve indicate that the value is below and above respectively, the no significant effect threshold, defined as 30% inhibition at 1 μg/mL at the time point indicated.)”. Also, the “MTT Assay Cell viability at time point in d-U937 cells 24 h” value in series [3] was “−ve (−ve and +ve indicate that the value is below and above respectively, the no significant effect threshold, defined as 30% inhibition at 1 μg/mL at the time point indicated.)”.

The values above are taken from US9249125B2, “Pyrazole derivatives as p38 MAP inhibitors” (RESPIVERT LIMITED, priority 2012, dated 2016).
